Results from patent US20190358176A1, “METHODS OF SENSITIZING CANCER CELLS TO IMMUNE CELL KILLING” (University of Pittsburgh - of the Commonwealth System of …, priority 2017, published 2019).
Read-outs that look alike come from different tables or passages of the source.

What was measured:
rat hepatocytes [1] = assay: Five-day hepatocyte toxicity (PI positive cells); format: cell-based
Procedure: (§1) Rat hepatocytes were isolated using standard two step collagenase digestion (15) and sub-cultivated at 14,000 hepatocytes/well in collagen-1 coated 384 well plates in Williams E Medium supplemented with 10% FBS, 2 mM L-glutamine and 50 U/ml Penicillin and streptomycin. After 4 hours, medium was decanted and replaced with Hepatocyte Maintenance Media (Williams E supplemented with 1.25 mg/ml bovine serum albumin, 6.25 μg/ml human insulin, 100 nM dexamethasone, 6.25 μg/ml human transferrin, 6.25 ng/ml selenous acid, 2 mM L-glutamine, 15 mM HEPES, 100 U/mL penicillin, and 100 U/mL streptomycin). After overnight culture, cells were treated with concentration gradients of test agents. One hour after compound addition, cells were labeled with 200 nM TMRE and 4 μg/ml Hoechst 33342 for 45 min, imaged live on an ArrayScan VTI using a 10× objective, and images were analyzed with the Compartmental Bioapplication. Mitochondria were identified as cytosolic spots by size and brightness. The final parameter was % HIGH RingSpotAvgIntenCh2 (i.e., percentage of cells with TMRE puncta in the cytoplasm based on a threshold set with vehicle treated cells).
A gelling solution of 1.25 mg/ml rat tail collagen type I in pH 7.2 90:10 (v/v) Williams E media/10×HBSS was overlaid onto the rat hepatocytes. The collagen gel was incubated for 1 hour at 37° C., 5% CO2. The collagen sandwich cultures were then challenged for 5 days to test compounds in Hepatocyte Maintenance Media, without refeeding. A 10× solution of 40 μg/ml Hoechst 33342 was added during the final 2 hours of incubation followed by a 10× solution of 20 μg/ml PI for 1 hour. Cells were imaged and the percentage of PI positive cells calculated as above.

[2] = system: patient-derived pre-B acute lymphoblastic leukemia (pre-B-ALL) cells; settings: literature (46); cited from earlier work
NCI 60 cell line panel = settings: NSC150117, last tested June 2016; cited from earlier work
rat hepatocytes [3] = assay: Hepatocyte mitochondrial function (TMRE staining); format: cell-based
Procedure: as §1

MDA-MB-231 cells [4] = assay: HCA of apoptosis and ERK phosphorylation (multiparametric: nuclear condensation, caspase-3 cleavage, ERK phosphorylation); format: cell-based, human; settings: for IC50: Homo sapiens, 24 hours
Procedure: MDA-MB-231 cells (10,000/well) were treated with identical concentration gradients of test agents on the right and left half of a 384 well microplate for later assessment of potential compound autofluorescence. After 24 hours, cells were fixed, permeabilized with 0.2% Triton X-100, blocked with 1% BSA/PBS, and immunostained with anti-phospho-ERK (E10, CST cat#9106L)/AlexaFluor488 and anti-cleaved caspase-3 (CST cat#9664L)/AlexaFluor594 primary/secondary antibody pairs. Plates were imaged on the ArrayScan II using a 10×0.5NA objective. Each well was background corrected by subtracting mean phospho-ERK and cleaved caspase-3 intensities from wells that had received secondary antibody only. Data in Table 1 are the averages of the indicated numbers of independent experiments, each performed in quadruplicate. IC50, standard error, and 95% confidence intervals were calculated by […] in GraphPad Prism.
Multiple data points were analyzed in GraphPad Prism by one-way ANOVA using Dunnett's multiple comparison test. EC50/IC50 values were obtained from at least three independent experiments by non-linear regression using a four parameter logistic equation. IC50, standard error, and 95% confidence intervals were calculated in GraphPad.

[5] = system: DUSP6/MKP-3 and DUSP1/MKP-1; settings: HeLa cells, prior study (12); cited from earlier work
MDA-MB-231 cells [6] = assay: HCA of cell motility and cytotoxicity (Oris Pro 384 cell migration plate); format: cell-based, human; settings: 48 hours, at antimigratory concentrations
Procedure: HCA of cell motility and cytotoxicity was performed essentially as described (51). MDA-MB-231 cells (15,000/well) were plated in collagen-coated Oris™ Pro 384-well microplates (Platypus Technologies cat # PRO384CMACCS) containing a chemical exclusion zone that dissolves upon cell seeding. Two hours after plating, medium was removed, and cells treated with ten-point, two-fold concentration gradients of test agents. Forty-eight hours after treatment, cells were stained with 10 μg/ml Hoechst 33342 and 1 μg/ml PI in HBSS for 15 min at 37° C. Plates were washed once with PBS and scanned live on the ArrayScan II using a 5× objective. To capture cells that had entered into the exclusion zone, a single field was acquired in the center of the well and nuclei therein enumerated. To assess changes in cell loss, nuclear size, and necrotic cell death, a second scan was performed that captured one field at the edge of the well (51). Parameters exported and plotted were SelectedObjectCountPerValidField (cell density), MEAN ObjectAreaCh1 (nucleus size), and % RESPONDER MeanAvgIntenCh2 (percent PI positive cells based on based on a threshold set with vehicle treated cells).

[7] = system: ERK, JNK/SAPK, p38, MEK1 and MKK4/SEK1 phosphorylation; assay: Western blot of MAPK cascade phosphorylation; format: cell-based, human; settings: MDA-MB-231 cells, 20 μM
MDA-MB-231 cells [8] = assay: Detection and quantitation of ROS in cancer cells (CM-H2-DCFDA); format: cell-based, human; settings: for EC50: read-out: EC50 of ROS generation
Procedure: Detection and quantitation of ROS in cancer cells was performed as described before (14). Briefly, MDA-MB-231 cells were labeled with Hoechst 33342, loaded with CM-H2-DCFDA (5 μM, 15 min), and treated with test agents for 10 min. After two washes, cells were analyzed for Hoechst and ROS/FITC fluorescence on the ArrayScan II. Cells were classified as positive for ROS if their average FITC intensity exceeded a threshold defined as the average FITC intensity plus one SD from DMSO-treated wells.

MDA-MB-231 cells [9] = assay: Toxicity reversal (rescue from BCI-215 toxicity by MAPK inhibitors); format: cell-based, human; settings: MAPK inhibitor pre-incubation, then BCI-215 25 μM, 24 hours
Procedure: Cells were pre-treated (30 min for SCH772984, SP600125, SB203580, and 3 hours for JNK-IN-8) with identical concentration gradients of MAPK inhibitors on the right and left halves of a 384 well microplate. After preincubation, half of the microplate was treated with vehicle (DMSO), the other with a pro-apoptotic concentration of BCI-215 (25 μM). To eliminate potential bias through plate/edge effects, an independent plate was prepared in parallel where vehicle and BCI-215 treatments were reversed. Twenty-four hours thereafter, plates were stained with Hoechst 33342, washed once, and imaged on the ArrayScan II using a 10× objective for analysis for cell numbers and nuclear morphology. Plates were subsequently immunostained with a cleaved caspase-3/Cy5-conjugated secondary antibody pair and analyzed for apoptosis on an ArrayScan VTI using a 20×0.75 NA objective. Four independent readouts were extracted and correlated: cell density (SelectedObjectCountPerValidField), nuclear condensation (MEAN_ObjectAvgIntenCh1), nucleus rounding (MEAN_ObjectShapeLWRCh1), and average cellular cleaved caspase-3 intensity (MEAN_AvgIntenCh2). For each parameter, data were normalized to vehicle (maximum rescue) and BCI-215 (no rescue) as % rescue=1−((data point−DMSO)/(DMSO-BCI-215))*100.

cellular MAPK activity = settings: literature value; cited from earlier work
MDA-MB-231 cells [10] = assay: Immune cell killing (sensitization to PBMC-derived LAK); format: cell-based, human; settings: pre-treated 24 hours: BCI-215 3 μM, cisplatin 2 μM, doxorubicin 400 nM
Procedure: Peripheral blood mononuclear cells were obtained from healthy volunteers with an established IRB approved protocol, separated from heparinized blood on Ficoll-hypaque (GE Healthcare, Chicago) gradients as previously reported (16). Cells were cultured in RPMI 1640 supplemented with 10% FCS, 1% glutamine, 1% penicillin/streptomycin, and stimulated with 6,000 IU of Interleukin 2 for 24 hours. After incubation, cells were washed with PBS and counted. In parallel, MBA-MB-231 cells were pre-treated in a 384 well plate with vehicle or BCI-215 (3 μM). After 24 hours in culture, medium was replaced and PBMC added in two-fold serial dilutions starting with a 50-fold excess of PBMCs in triplicate. After 24 hours of co-culture, cells were fixed with formaldehyde/Hoechst 33342, washed twice with PBS, and imaged on the ArrayScan II. Cancer cells were identified by their larger nuclei compared with PBMC, setting a size gate in the DAPI channel. In experiments with chemotherapeutics, cells carrying a biosensor consisting of a mitochondrial targeting sequence derived from cytochrome c oxidase VIII linked to GFP that is a surrogate for cytochrome c release from mitochondria (17) were pre-treated for 24 hours with cisplatin (2 μM) or doxorubicin (400 nM), exposed to LAK as above, and cancer cells identified and quantified by green fluorescence. Cell densities were normalized to those in the absence of PBMCs. Mean cell densities from multiple independent experiments were averaged and plotted in GraphPad Prism.

[11] = rat hepatocytes, 5-day exposure

**Q.** What does the source list for O=C1/C(=C/c2ccccc2)C(NC2CCCCC2)c2ccccc21 (centres unmarked) [BCI, (E)-2-benzylidene-3-(cyclohexylamino)-2,3-dihydro-1H-inden-1-one]?
**A.** hepatocyte toxicity, cell death (PI positive cells) (rat hepatocytes [1]; [11]): caused cell death; cell death in pre-B-ALL cells [2]: selectively induced cell death; GI50 (NCI 60 cell line panel): 1.84 µM; mitochondrial membrane integrity / potential (TMRE) (rat hepatocytes [3]): did not affect mitochondrial potential; nuclear morphology (MDA-MB-231 cells [4]; BCI and BCI-215 at 22 μM): shrunken, condensed nuclei that resembled pyknosis; IC50 (MDA-MB-231 cells [4]; induction of phospho-ERK, read-out: IC50 ERK phosphorylation): 8.59 µM; IC50 (MDA-MB-231 cells [4]; read-out: IC50 Caspase-3 cleavage): 9.17 µM; IC50 (MDA-MB-231 cells [4]; read-out: IC50 Nuclear condensation): 12.8 µM; effect on ectopic DUSP6/MKP-3 and DUSP1/MKP-1 expression [5]: override the effects; necrosis (% PI positive cells) (MDA-MB-231 cells [6]): Necrosis was reduced; activation (phosphorylation) of ERK, JNK/SAPK and p38 [7]: activated all three kinases; EC50 (MDA-MB-231 cells [8]; Homo sapiens): 20 µM

**Q.** With Cc1cc(NC(=O)c2cccc(NC(=O)/C=C/CN(C)C)c2)ccc1Nc1nccc(-c2cccnc2)n1 [JNK-IN-8] as the compound, how does the “reversal of BCI-215-induced cell loss, nuclear morphology changes and apoptosis” value (MDA-MB-231 cells [9]) read?
**A.** no effect

**Q.** What about the “published concentration reported to inhibit cellular MAPK activity” value (cellular MAPK activity) of the same compound?
**A.** 0.5 µM

**Q.** With O=C1C(SCCO)=C(SCCO)C(=O)c2ccccc21 [NSC95397] as the compound, how does the “hepatocyte toxicity, cell death (PI positive cells)” value (rat hepatocytes [1]; [11]) read?
**A.** caused cell death

**Q.** What about the “mitochondrial membrane integrity / potential (TMRE)” value (rat hepatocytes [3]) of the same compound?
**A.** loss of mitochondrial membrane integrity

**Q.** And the “necrosis (% PI positive cells)” value (MDA-MB-231 cells [6])?
**A.** caused necrosis at antimigratory concentrations

**Q.** What about the “time to ROS generation” value (MDA-MB-231 cells [8]) of the same compound?
**A.** ≤ 30 min

**Q.** What about the EC50 (MDA-MB-231 cells [8]) of the same compound?
**A.** 3 to 5 µM

**Q.** Which “reversal of BCI-215-induced cell loss, nuclear morphology changes and apoptosis” value (MDA-MB-231 cells [9]) does the source give for C[S+]([O-])c1ccc(-c2nc(-c3ccncc3)c(-c3ccc(F)cc3)[nH]2)cc1 (centres unmarked) [SB203580] here?
**A.** partially reversed

**Q.** What about the “published concentration reported to inhibit cellular MAPK activity” value (cellular MAPK activity) of the same compound?
**A.** 10 µM

**Q.** Which “reversal of BCI-215-induced cell loss, nuclear morphology changes and apoptosis” value (MDA-MB-231 cells [9]) does the source give for O=C(Nc1ccc2[nH]nc(-c3ccncc3)c2c1)[C@@H]1CCN(CC(=O)N2CCN(c3ccc(-c4ncccn4)cc3)CC2)C1 [SCH772984] here?
**A.** no effect

**Q.** And the “published concentration reported to inhibit cellular MAPK activity” value (cellular MAPK activity)?
**A.** 0.03 µM

**Q.** For N.N.[Cl][Pt][Cl] [cisplatin], which “sensitization to LAK activity” value (MDA-MB-231 cells [10]) is on record?
**A.** sensitized cells to LAK activity

**Q.** Which “sensitization to LAK activity” value (MDA-MB-231 cells [10]) does the source give for COc1cccc2c1C(=O)c1c(O)c3c(c(O)c1C2=O)C[C@@](O)(C(=O)CO)C[C@@H]3O[C@H]1C[C@H](N)[C@H](O)[C@H](C)O1 [doxorubicin] here?
**A.** sensitized cells to LAK activity

**Q.** Which “hepatocyte toxicity, cell death (PI positive cells)” value (rat hepatocytes [1]) does the source give for CC1=CC(=O)c2ccccc2C1=O [menadione] here?
**A.** caused cell death

**Q.** And the “mitochondrial membrane integrity / potential (TMRE)” value (rat hepatocytes [3])?
**A.** loss of mitochondrial membrane integrity

**Q.** Which results are given for C[n+]1cc2c3c(ccc2c2ccc4cc5c(cc4c21)OCO5)OCO3 [sanguinarine]?
**A.** hepatocyte toxicity, cell death (PI positive cells) (rat hepatocytes [1]; [11]): caused cell death; mitochondrial membrane integrity / potential (TMRE) (rat hepatocytes [3]): loss of mitochondrial membrane integrity
